From ChEMBL document CHEMBL1201862, “PubChem BioAssay data set” (2004)
Active and inactive are the calls of the source.

Legend:
HEK293 [1] = experiment: Fluorescence-based counterscreen for potentiators or agonists of NPY-Y2: cell-based high-throughput dose response assay to identify inhibitors of cyclic nucleotide gated ion channel (CNGC) activity. In this assay, the parental HEK293 cell line transfected with a cyclic-nucleotide gated ion channel (CNGC)-based cAMP sensor is used to measure inhibition of isoproterenol-induced CNGC activity by test compound.; format: functional; settings: Homo sapiens
[2] = biological target: Lysosomal acid glucosylceramidase (Homo sapiens, UniProt P04062); experiment: Dose response cell-based high throughput screening assay to identify enhancers of beta-glucosidase activity. [Related pubchem assays: 784 ]; format: functional
Lysosomal acid glucosylceramidase, sequence (P04062 whole entry): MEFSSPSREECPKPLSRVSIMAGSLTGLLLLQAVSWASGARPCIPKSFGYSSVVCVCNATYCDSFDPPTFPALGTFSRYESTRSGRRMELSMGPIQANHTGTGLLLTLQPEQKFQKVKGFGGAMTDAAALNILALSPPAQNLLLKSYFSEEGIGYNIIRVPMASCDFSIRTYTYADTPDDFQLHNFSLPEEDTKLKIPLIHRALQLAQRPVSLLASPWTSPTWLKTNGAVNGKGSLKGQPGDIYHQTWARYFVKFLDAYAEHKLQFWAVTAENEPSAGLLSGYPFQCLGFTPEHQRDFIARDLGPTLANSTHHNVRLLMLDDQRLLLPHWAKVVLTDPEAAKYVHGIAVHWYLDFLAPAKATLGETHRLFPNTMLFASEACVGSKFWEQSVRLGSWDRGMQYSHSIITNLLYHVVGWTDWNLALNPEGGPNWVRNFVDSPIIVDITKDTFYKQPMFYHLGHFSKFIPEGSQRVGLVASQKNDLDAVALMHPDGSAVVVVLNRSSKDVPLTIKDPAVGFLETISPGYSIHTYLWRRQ

[3] = biological target: T1, Neuropeptide Y receptor type 2 (Homo sapiens, UniProt P49146); experiment: Fluorescence-based cell-based high-throughput dose response assay for agonists of NPY-Y2. [Related pubchem assays: 1703 (Screening assay (CNGC inhibitors).), 1359 (Screening assay (NPY-Y2 potentiators or agonists).), 1304 (Screening assay (NPY-Y1 potentiators or agonists).), 1710 (Screening assay (NPY-Y2 agonists).), 1791 (Summary AID.)]; format: functional
T1 sequence (P49146 whole entry): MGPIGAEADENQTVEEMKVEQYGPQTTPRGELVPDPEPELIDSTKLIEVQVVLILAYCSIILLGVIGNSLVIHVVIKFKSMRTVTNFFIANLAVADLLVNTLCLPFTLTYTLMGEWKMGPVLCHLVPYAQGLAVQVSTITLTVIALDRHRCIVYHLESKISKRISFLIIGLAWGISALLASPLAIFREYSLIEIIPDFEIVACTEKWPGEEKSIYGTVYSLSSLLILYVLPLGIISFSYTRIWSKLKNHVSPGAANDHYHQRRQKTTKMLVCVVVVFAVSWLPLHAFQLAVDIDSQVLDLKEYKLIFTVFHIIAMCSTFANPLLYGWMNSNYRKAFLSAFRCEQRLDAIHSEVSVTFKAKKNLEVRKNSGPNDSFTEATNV

[4] = biological target: T2, Neuropeptide Y receptor type 1 (Homo sapiens, UniProt P25929); experiment: Fluorescence-based counterscreen for agonists of NPY-Y2: cell-based high-throughput dose response assay for agonists of NPY-Y1.; format: functional
T2 sequence (P25929 whole entry): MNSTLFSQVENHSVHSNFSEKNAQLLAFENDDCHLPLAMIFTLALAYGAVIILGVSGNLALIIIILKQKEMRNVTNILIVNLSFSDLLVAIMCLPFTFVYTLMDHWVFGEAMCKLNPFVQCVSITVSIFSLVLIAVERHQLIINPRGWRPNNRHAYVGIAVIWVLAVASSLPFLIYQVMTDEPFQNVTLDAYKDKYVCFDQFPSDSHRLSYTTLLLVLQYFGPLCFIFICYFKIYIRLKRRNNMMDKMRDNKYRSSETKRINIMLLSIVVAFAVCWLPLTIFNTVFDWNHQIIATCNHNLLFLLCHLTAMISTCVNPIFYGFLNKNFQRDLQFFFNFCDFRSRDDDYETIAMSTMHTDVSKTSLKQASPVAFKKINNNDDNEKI

Streptococcus = experiment: Luminescence Microorganism-Based Dose Response Follow up to Identify Compounds Cytotoxic to Streptococcus. [Related pubchem assays: 1677 (Project Summary), 1915, 1914, 1902 (Retest at Dose), 1900 (Counter Screen), 1662 (Primary HTS)]; format: functional, organism-based
HEK293 [5] = experiment: PMA/Ionomycin induced NF-kB luciferase assay in 293- NF-kB-Luc stable cells. [Related pubchem assays: 1299, 1270, 1295, 1375, 1287, 1281, 1293, 1291, 1289, 1280, 465, 1364, 1282, 1372, 1365, 1370, 1367, 1366, 1269, 1373, 1292, 1290, 1302, 1371, 1283, 1271, 1294, 1374, 1368, 1369 ]; format: functional, cell-based; settings: Homo sapiens
[6] = biological target: Luciferin 4-monooxygenase (Photinus pyralis, UniProt P08659); experiment: In vitro luciferase assay using purified luciferase. [Related pubchem assays: 1299, 1270, 1295, 1375, 1287, 1281, 1293, 1291, 1289, 1280, 465, 1364, 1282, 1372, 1365, 1370, 1367, 1366, 1266, 1373, 1292, 1290, 1302, 1371, 1283, 1271, 1294, 1374, 1368, 1369 ]
Luciferin 4-monooxygenase, sequence (P08659 whole entry): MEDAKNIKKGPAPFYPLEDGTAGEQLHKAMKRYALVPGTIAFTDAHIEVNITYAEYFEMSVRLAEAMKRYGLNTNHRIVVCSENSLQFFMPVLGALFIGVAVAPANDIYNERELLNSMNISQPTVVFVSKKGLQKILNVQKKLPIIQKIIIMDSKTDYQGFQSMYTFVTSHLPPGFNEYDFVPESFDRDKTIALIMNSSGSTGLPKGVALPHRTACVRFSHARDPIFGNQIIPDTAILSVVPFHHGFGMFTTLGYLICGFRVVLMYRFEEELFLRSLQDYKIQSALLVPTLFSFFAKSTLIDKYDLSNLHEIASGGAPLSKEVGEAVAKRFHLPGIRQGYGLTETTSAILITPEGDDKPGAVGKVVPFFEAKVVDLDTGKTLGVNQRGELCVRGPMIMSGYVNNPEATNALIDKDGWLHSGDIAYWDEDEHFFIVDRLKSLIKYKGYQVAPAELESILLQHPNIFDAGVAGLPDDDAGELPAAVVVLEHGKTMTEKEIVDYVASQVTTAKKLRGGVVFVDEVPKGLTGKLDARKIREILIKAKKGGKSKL

HEK293 [7] = experiment: Cytotoxicity assay in HEK293 cells. [Related pubchem assays (depositor defined):AID1266, AID1269, AID1270, AID1271, AID1280, AID1281, AID1282, AID1283, AID1287, AID1289, AID1290, AID1291, AID1292, AID1293, AID1294, AID1295, AID1299, AID1302, AID1364, AID1365, AID1366, AID1367, AID1369, AID1370, AID1371, AID1372, AID1373, AID1374, AID1375, AID1384 …; format: functional, cell-based; settings: Homo sapiens
[8] = biological target: Mothers against decapentaplegic homolog 3 (Homo sapiens, UniProt P84022); experiment: Smad3 binding inhibitors, lysate ELISA, dose response, cell lysate, secondary confirmation, chemiluminescent ELISA, HEK293 lysate (AID 1058); format: functional
Mothers against decapentaplegic homolog 3, sequence (P84022 whole entry): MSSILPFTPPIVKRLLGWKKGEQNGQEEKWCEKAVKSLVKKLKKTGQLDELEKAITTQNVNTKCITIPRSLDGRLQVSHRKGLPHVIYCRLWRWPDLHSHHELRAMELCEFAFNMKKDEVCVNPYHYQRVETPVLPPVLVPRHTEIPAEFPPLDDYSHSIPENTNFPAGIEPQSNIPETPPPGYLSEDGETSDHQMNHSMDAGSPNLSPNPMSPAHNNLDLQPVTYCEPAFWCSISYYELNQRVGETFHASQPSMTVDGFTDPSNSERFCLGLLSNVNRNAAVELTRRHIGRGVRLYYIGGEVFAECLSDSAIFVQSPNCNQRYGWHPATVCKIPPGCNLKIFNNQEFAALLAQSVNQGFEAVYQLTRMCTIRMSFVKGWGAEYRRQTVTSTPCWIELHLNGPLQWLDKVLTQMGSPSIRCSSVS

Staphylococcus aureus = experiment: Inhibitors of Bacterial Quorum Sensing Structure Activity Relationship (SAR) Analysis: Dose Response Assay. [Related pubchem assays: 700, 527 ]; format: functional, organism-based

In the case of `O=C(NCCCn1ccnc1)Nc1ccc(Cl)cc1`, the EC50 (HEK293 [1]) is reported as > 35.4 µM (not active), the EC50 [2] is reported as > 50 µM (not active) and the EC50 [3] is reported as > 35.4 µM (not active). For the same compound, the EC50 [4] was > 35.4 µM (not active).
In the case of `O=C(c1ccc(F)cc1)n1c2ccccc2c2ccccc21`, the EC50 (Streptococcus) is reported as > 500 µM (not active).
For `C/C(=N\NC(=O)c1cccc([N+](=O)[O-])c1)c1ccccn1`, the EC50 (HEK293 [5]) was 6.12 µM (not active), the EC50 [6] was > 8 µM (not active) and the EC50 (HEK293 [7]) was 10.2 µM (inactive).
With `O=C1OC2(c3ccc(O)c(O)c3Oc3c2ccc(O)c3O)c2c(Cl)c(Cl)c(Cl)c(Cl)c21` the IC50 [8] was 12.4 µM (active).
With `Cc1ccc(C)c(S(=O)(=O)c2nnn3c2[nH]c(=O)c2sccc23)c1` the IC50 (Staphylococcus aureus) was 5.17 µM (active).
